The source of these data is US12129248B2, “Chromobox protein inhibitors and uses thereof” (Dana-Farber Cancer Institute, Inc., priority 2016, dated 2024).

pIC50: −log10 of the molar value.

Broadly, the pIC50 is the IC50 on a negative log10 scale, so that one unit is a factor of ten.

For one data set, the target named is Human His6-CBX7 (Homo sapiens (Human), UniProt O95931). In words: CBX7 AlphaScreen assay (binding of CBX7 chromodomain to H3K27me3 peptide). The source says: A biochemical assay was developed based on nanoparticle AlphaScreen assay to monitor the binding of recombinant CBX chromodomain (CBX7) to a methylated peptide (H3K27me3).
Human His6-CBX7, sequence (O95931 11-69): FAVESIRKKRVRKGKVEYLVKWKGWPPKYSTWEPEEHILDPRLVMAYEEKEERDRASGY
The primary assay uses recombinant CBX chromodomain and synthetic, trimethylated H3 histone tail peptide. When CBX/histone tail-binding occurs, AlphaScreen beads are brought in close proximity, resulting in singlet molecular oxygen transfer and production of a luminescent signal. Assay positives inhibiting the binding interaction are therefore expected to prevent complex formation, diminishing signal intensity. The AlphaScreen technology features an anti-Stokes shift in detection: due to energy transfer between beads by singlet oxygen and internal chemical reactions within the acceptor bead, the emission wavelength is blue-shifted relative to the excitation wavelength, which is impossible in traditional fluorescent assays. The relatively long path length of 200 nm that singlet molecular oxygen can travel enables reporting on full protein complexes and not just single target binding. […] Neither the small molecules being tested nor the target protein, CBX7, need to be chemically, conformationally, or behaviorally altered by tethering them to a surface or reporter that may decrease physiological relevance and beget screening artifacts. The primary assay monitors binding of the chromodomain of CBX7 to a histone tail containing a trimethylated lysine at K27, the biologically relevant interaction through which PRC binds to chromatin to repress transcription. This is a robust proximity-based assay that utilizes AlphaScreen technology (PerkinElmer). The assay consists of His6-CBX7 bound to a Ni^++ acceptor bead and the biotinylated histone tail bound to a streptavadin donor bead. Upon CBX7/H3K27me3 binding, the steptavidin bead comes into proximity with the Ni^++ bead to luminesce upon light excitation ([…]; see below).
The protocol for the CBX7 AlphaScreen was as follows: a standard alpha buffer (50 mM HEPES, 150 mM NaCl, 0.1% w/v BSA, 0.01% w/v Tween20) at pH 8.0 and make up two stock solutions at 2× final concentration in the alpha buffer. Solution A contains Human His6-CBX7 is used with biotinylated-H3K27me3 (residues 20-34), at 100 nM and 50 nM respectively. Solution B contains 20 nM streptavidin donor beads and 20 nM nickel acceptor beads. For 384 well assay formats, 10 uL of solution A is added to each well of the assay plate and the plate is spun at 1000 rpm for 30 seconds. 100 nL of experimental compounds from stock plates are delivered by robotic pin transfer using a Janus Workstation (PerkinElmer), allowing the compounds to interact with CBX7 binding prior to assay measurement, followed by another spin and an incubation room temperature. Finally, 10 uL of solution B is added to each well, the plate is spun again and then incubated at room temperature. AlphaScreen measurements are performed on an Envision 2104 (PerkinElmer) utilizing the manufacturer's protocol that has the correct excitation and emission wavelengths, cutoff filters, delay time, etc. A crosstalk calculation is also done through the Envision software to correct for luminescence for adjacent wells while reading the plate. The signal is then normalized to DMSO control wells on the compound plate prior to creation of the IC50 curves.

The target of a further data set is CBX7 (Homo sapiens (Human), UniProt O95931). The data set is described as follows: Isothermal titration calorimetry. The data set is classed as binding. Conditions: in words (FIG. 20). The source says: A new series of compounds were designed and synthesized based on computational modeling of inhibitor compounds with the literature reported crystal structure of CBX.
CBX7, sequence (O95931 whole entry): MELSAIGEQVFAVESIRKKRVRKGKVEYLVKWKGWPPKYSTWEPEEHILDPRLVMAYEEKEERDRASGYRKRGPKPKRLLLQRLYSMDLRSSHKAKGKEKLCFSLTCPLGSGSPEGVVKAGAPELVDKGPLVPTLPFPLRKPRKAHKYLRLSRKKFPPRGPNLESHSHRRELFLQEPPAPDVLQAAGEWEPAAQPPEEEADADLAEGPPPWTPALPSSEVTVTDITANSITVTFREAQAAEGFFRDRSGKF
Background: In ITC the heat of successive injections is recorded.

Data set [1] has as its system HCT292 human lung cancer cells. In words: HCT292 cell viability (crystal violet / ATPlite). Format: cell-based. As to the method: Lastly, the biological activity of lead compounds was assessed in cancer cells lines determined to be sensitive to CBX inhibition. First, a cell line screening for CBX2 and CBX3 dependence/sensitivity was conducted using shRNAs. […] These cell lines were utilized to evaluate the potential cellular activity of a panel of CBX inhibitors (Tables 3-9).
Briefly, HCT292 cells were treated 24 hours after passage; the compounds in DMSO were added directly to their media. Initially, which cells caused cell death was checked by fixing and staining the cells with crystal violet 96-hours post treatment and then reading the absorbance using the Envision and comparing the signal to a DMSO control. This was done as a preliminary viability screen prior to the ATPlite assay to determine which compounds HCT292 cells were and H661 cells were not sensitive to. […] Thus, a cellular system to evaluate the activity of small molecule CBX inhibitors was established.
A general note: ATP-based viability assays read luminescence as a measure of living cells.

Turning to `COC(=O)C1CSC(CC(=O)Nc2ccc(N3CCCC3)cc2)C(=O)N1` (centres unmarked) [ACV-22], the “binding affinity with CBX” value at Human His6-CBX7 (in words (FIG. 9)) is reported as “low micromolar”. The “binding affinity by isothermal titration calorimetry” value on CBX7 was “further confirmed”.
`O=C(CC1S/C(=N/N=C/c2ccc(O)c(O)c2O)NC1=O)Nc1ccc(N2CCCC2)cc1` (centres unmarked) [ACV-17 (2)]: the pIC50 was 6.03 on Human His6-CBX7 (average, His6-CBX7 / biotinylated-H3K27me3, read-out: AVG CBX7 Alpha IC50) and 6.48 in data set [1] (Homo sapiens, Table 4, assay not given, cited among cellular activity Tables 3-9 (HCT292)). The “% Viability” value in data set [1] (HCT292 cells, 96 hours, 50 uM, relative to DMSO, listed as 2-165) is 58.8%.
